Experimental data reported in patent US11542316B2, “S-Arrestin peptides and therapeutic uses thereof” (APITOPE INTERNATIONAL NV, priority 2017, dated 2023).
Ends that are not written are not given here.

Molecular target: T1, MHC II molecules present on dendritic cells (DC) (Homo sapiens, UniProt P01903+P01911)
T1 construct: from tissue; host or cells: CD11c+ dendritic cells from spleens of DR2tg mice (DRA*0101 and DRB1*1501 cDNAs under a mouse MHCII promoter, no mouse MHC class II)
Assay: In vivo presentation experiment, DR2tg mice
Conditions: 100 μg peptide s.c., CD11c+ cells harvested after 2 hours, co-culture 48 hours
From the text: FIG. 14: In vivo presentation protocol. Mice are immunized with peptide/CFA and a T cell line is established. For this, ten days after immunization the LN and spleens are harvested and cultured with different concentrations of peptide; 2×10^6 cells/ml APC+1×10^6 cells/ml CD4^+ cells per well. At day 7 the cells are re-stimulated with fresh APC and the same concentrations of peptide. After 14 to 21 days, CD4^+ cells are isolated from these cultures by magnetic bead isolation. These CD4^+ cells are co-cultured with CD11c^+ (dendritic) cells isolated by magnetic bead isolation from spleens of mice s.c. injected with peptide 2 hours before. Control mice receive a s.c. injection of PBS. After 48 hours, supernatant is collected and cytokine response (IFN-γ) is measured. […]
FIG. 17: In vivo presentation of HIP-9FL nested peptides in DR2 mice. […] After 48 hours, supernatant was collected and IFN-γ production was measured by ELISA. […]
DR3tg or DR2tg mice were injected with 100 μg of peptide in 100 μl PBS subcutaneously (s.c.) in the flank. […] After 48 hours, supernatant of these co-cultures was collected and CD4^+ T cell activation was analysed by IFN-γ ELISA (R&D Systems, Abingdon, UK). In a parallel experiment, CD4^+ T cell responses towards peptide added in vitro were assessed to make sure the T cells recognize the peptides presented by the CD11c^+ cells.

T1 sequence (P01903 26-254): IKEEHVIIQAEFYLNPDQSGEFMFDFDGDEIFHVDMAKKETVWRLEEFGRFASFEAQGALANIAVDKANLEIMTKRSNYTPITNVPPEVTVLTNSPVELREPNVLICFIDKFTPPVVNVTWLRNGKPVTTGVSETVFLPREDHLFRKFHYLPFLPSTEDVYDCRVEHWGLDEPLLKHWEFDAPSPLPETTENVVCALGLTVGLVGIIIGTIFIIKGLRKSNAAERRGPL
T1 sequence (P01911 30-266): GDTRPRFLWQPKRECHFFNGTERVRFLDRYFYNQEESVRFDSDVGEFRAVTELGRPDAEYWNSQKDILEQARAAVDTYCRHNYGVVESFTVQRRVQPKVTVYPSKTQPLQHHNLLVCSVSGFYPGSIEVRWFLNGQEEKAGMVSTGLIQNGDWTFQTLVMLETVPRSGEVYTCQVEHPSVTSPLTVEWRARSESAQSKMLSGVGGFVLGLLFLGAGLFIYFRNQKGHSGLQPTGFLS

## KKKAFVEQVANVVLKKK-NH2 [HIP-9K1-KKK, KKKAFVEQVANVVLKKK]
  picked up and presented by MHC II on dendritic cells to peptide-specific T cells (IFN-γ production): presented by DC to T cells
